Values quoted from earlier work as cited in patent US9782413B2, “Composition for treatment of essential thrombocythemia” (AOP ORPHAN PHARMACEUTICALS AG, priority 2010, dated 2017).

Legend:
[1] = test system: phosphodiesterase (PDE) 3
[2] = after anagrelide administration

SMILES	phosphodiesterase (PDE) 3 inhibitory activity [1]	delay of peak plasma level compared to the parent drug [2]	platelet reduction in vivo (platelets)
O=C1NC2=Nc3ccc(Cl)c(Cl)c3CN2C1O (stereo not shown) [3-hydroxyanagrelide]	considerably more potent than anagrelide	about 45 mm	
NC1=Nc2ccc(Cl)c(Cl)c2CN1 [RL 603, 2-amino-5,6-dichloro-3,4-dihydroquinazolone]	lacks these activities		lacks these activities
